Laboratory results: ChEMBL document CHEMBL1914313, “Monosubstituted γ-lactam and conformationally constrained 1,3-diaminopropan-2-ol transition-state isostere inhibitors of β-secretase (BACE)” (Bioorg Med Chem Lett, 2011)
Values belong to the molecule of their own block, whether it stands above or below them. The source made the active and inactive calls. No cut-off for these calls is given here.

Key:
Beta-secretase 1 [1] = biological target: T1, Beta-secretase 1 (Homo sapiens, UniProt P56817); experiment: Ratio of IC50 for BACE1 in human HEK293 cells expressing swedish mutant AP to IC50 for BACE1; format: cell-based
Beta-secretase 1 [2] = biological target: T1, Beta-secretase 1; experiment: Inhibition of BACE1 in human HEK293 cells expressing swedish mutant APP; format: cell-based
Rattus norvegicus [3] = experiment: Antialzheimer activity in CD-IGS rat assessed as reduction in plasma amyloid beta level at 30 mg/kg, ip measured after 5 hrs relative to control; format: functional; parameters: scale not given: the % may be the effect or the level left; conditions: route intraperitoneal
[4] = Plasma concentration in CD-IGS rat at 30 mg/kg, ip measured after 5 hrs; format: ADME, organism-based; parameters: dose 30 mg/kg, route intraperitoneal
[5] = Ratio drug level in brain to plasma of CD-IGS rat at 30 mg/kg, ip measured after 5 hrs; format: ADME, organism-based; parameters: dose 30 mg/kg, route intraperitoneal; conditions: read-out: BPR
Rattus norvegicus [6] = experiment: Antialzheimer activity in CD-IGS rat assessed as reduction in brain amyloid beta level at 30 mg/kg, ip measured after 5 hrs relative to control; format: functional; parameters: scale not given: the % may be the effect or the level left; conditions: route intraperitoneal
Beta-secretase 1 [7] = biological target: T1, Beta-secretase 1; experiment: Inhibition of BACE1 by HPLC method
[8] = Selectivity for BACE1 over pepsin
[9] = Selectivity for BACE1 over cathepsin D
[10] = Selectivity for BACE1 over cathepsin E
P-glycoprotein = experiment: Efflux ratio of permeability across basolateral to apical side over apical to basolateral side in human Caco2 cells expressing p-glycoprotein; format: ADME, cell-based; conditions: Caco-2
Mus musculus [11] = experiment: Antialzheimer activity in transgenic 2576 mouse assessed as reduction in plasma amyloid beta level at 30 mg/kg, sc measured after 5 hrs relative to control; format: functional; parameters: scale not given: the % may be the effect or the level left; conditions: route subcutaneous
[12] = Fraction unbound in plasma of transgenic 2576 mouse at 30 mg/kg, sc measured after 5 hrs; format: ADME, organism-based; parameters: dose 30 mg/kg, route subcutaneous
Mus musculus [13] = experiment: Antialzheimer activity in transgenic 2576 mouse assessed as reduction in brain amyloid beta level at 30 mg/kg, sc measured after 5 hrs relative to control; format: functional, organism-based; parameters: dose 30 mg/kg
[14] = Ratio drug level in brain to plasma of transgenic 2576 mouse at 30 mg/kg, sc measured after 5 hrs; format: ADME, organism-based; parameters: dose 30 mg/kg, route subcutaneous; conditions: read-out: BPR
[15] = Drug level in brain of transgenic 2576 mouse at 30 mg/kg, sc measured after 5 hrs; format: ADME, organism-based; parameters: dose 30 mg/kg, route subcutaneous; conditions: read-out: Drug uptake
[16] = Drug level in plasma of transgenic 2576 mouse at 30 mg/kg, sc measured after 5 hrs; format: ADME, organism-based; parameters: dose 30 mg/kg, route subcutaneous
[17] = Fraction unbound in plasma of CD-IGS rat at 30 mg/kg, ip measured after 5 hrs; format: ADME, organism-based; parameters: dose 30 mg/kg, route intraperitoneal

T1 sequence (P56817 whole entry): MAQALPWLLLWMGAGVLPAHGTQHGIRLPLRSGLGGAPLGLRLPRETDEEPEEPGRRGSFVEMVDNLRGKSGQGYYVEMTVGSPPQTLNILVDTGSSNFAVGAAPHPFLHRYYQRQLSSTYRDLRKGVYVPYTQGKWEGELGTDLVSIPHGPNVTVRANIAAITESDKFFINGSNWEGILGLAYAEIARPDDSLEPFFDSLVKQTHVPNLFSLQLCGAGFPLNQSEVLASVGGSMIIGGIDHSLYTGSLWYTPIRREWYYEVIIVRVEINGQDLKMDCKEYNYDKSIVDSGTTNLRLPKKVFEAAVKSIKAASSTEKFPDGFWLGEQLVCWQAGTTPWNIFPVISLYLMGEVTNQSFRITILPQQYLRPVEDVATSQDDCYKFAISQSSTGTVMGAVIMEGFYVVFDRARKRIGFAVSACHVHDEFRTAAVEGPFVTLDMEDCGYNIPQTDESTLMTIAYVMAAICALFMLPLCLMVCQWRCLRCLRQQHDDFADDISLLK

Structure (SMILES): CCCC[C@H]1CCN([C@@H](CCc2ccccc2)C(=O)N[C@@H](Cc2cc(F)cc(F)c2)[C@H](O)[C@H]2Cc3ccccc3CN2)C1=O
- Ratio IC50 (Beta-secretase 1 [1]): > 10
- IC50 (Beta-secretase 1 [2]): 1400 nM

Structure (SMILES): CCCO[C@H]1CN[C@@H]([C@@H](O)[C@H](Cc2cc(F)cc(F)c2)NC(=O)[C@H](CCc2ccccc2)N2CC[C@](NC(C)=O)(C(C)CC)C2=O)C1 (stereo partly specified)
- Selectivity ratio [8]: 31
- Selectivity ratio [9]: 31
- IC50 (Beta-secretase 1 [7]): 2.6 nM
- Selectivity ratio [10]: 31
- IC50 (Beta-secretase 1 [2]): 2.7 nM

Structure (SMILES): CCCC[C@H]1CCN([C@@H](C)C(=O)N[C@@H](Cc2cc(F)cc(F)c2)[C@H](O)[C@H]2Cc3ccccc3CN2)C1=O
- Ratio IC50 (Beta-secretase 1 [1]): > 10
- IC50 (Beta-secretase 1 [2]): 720 nM

Structure (SMILES): CCC(C)[C@@]1(NC(C)=O)CCN([C@@H](CCc2ccccc2)C(=O)N[C@@H](Cc2cc(F)cc(F)c2)[C@H](O)[C@H]2C[C@H](O)CN2)C1=O (stereo partly specified)
- Activity (Mus musculus [11]): 66%
- Selectivity ratio [8]: 3400
- fraction unbound at 5 h [12]: 0.1
- Activity (Mus musculus [13]): inactive
- Selectivity ratio [9]: 3400
- Kp at 5 h [14]: 0.87
- concentration at 5 h [15]: 680 nM
- IC50 (Beta-secretase 1 [7]): 0.89 nM
- concentration at 5 h [16]: 780 nM
- Selectivity ratio [10]: 3400
- IC50 (Beta-secretase 1 [2]): 11 nM

Structure (SMILES): CCC(C)[C@@]1(NC(C)=O)CCN([C@@H](CCc2ccccc2)C(=O)N[C@@H](Cc2cc(F)cc(F)c2)[C@H](O)[C@H]2C[C@@H](Oc3cccnc3)CN2)C1=O (stereo partly specified)
- IC50 (Beta-secretase 1 [7]): 5.9 nM
- IC50 (Beta-secretase 1 [2]): 2.5 nM

Structure (SMILES): CCCC[C@H]1CCN([C@@H](C)C(=O)N[C@@H](Cc2cc(F)cc(F)c2)[C@H](O)CNCc2cccc(OC)c2)C1=O
- Activity (Rattus norvegicus [3]): 26%
- fraction unbound at 5 h [17]: 0.029
- concentration at 5 h [4]: 1600 nM
- Kp at 5 h [5]: 0.18
- Activity (Rattus norvegicus [6]): 112%
- IC50 (Beta-secretase 1 [7]): 60 nM
- IC50 (Beta-secretase 1 [2]): 81 nM

Structure (SMILES): COC[C@H]1CCN([C@@H](C)C(=O)N[C@@H](Cc2cc(F)cc(F)c2)[C@H](O)CNCc2cccc(OC)c2)C1=O
- IC50 (Beta-secretase 1 [7]): 480 nM
- IC50 (Beta-secretase 1 [2]): 400 nM

Structure (SMILES): COc1cccc(CNC[C@@H](O)[C@H](Cc2cc(F)cc(F)c2)NC(=O)[C@H](CCc2ccccc2)N2CC[C@H](CC(C)C)C2=O)c1
- IC50 (Beta-secretase 1 [7]): 20 nM
- IC50 (Beta-secretase 1 [2]): 240 nM

Now from value to molecule, other results behind:

- concentration at 5 h [4]: 4000 nM
- Kp at 5 h [5]: 0.02
- IC50 (Beta-secretase 1 [7]): 19 nM
- IC50 (Beta-secretase 1 [2]): 84 nM
Structure (SMILES): CCCC[C@H]1CCN([C@@H](CCc2ccccc2)C(=O)N[C@@H](Cc2cc(F)cc(F)c2)[C@H](O)[C@H]2C[C@@H](OCCC)CN2)C1=O
- Activity (Rattus norvegicus [3]): 23%
- Activity (Rattus norvegicus [6]): 114%

- IC50 (Beta-secretase 1 [7]): 35 nM
- efflux ratio (P-glycoprotein): 32
- IC50 (Beta-secretase 1 [2]): 110 nM
Structure (SMILES): CCCO[C@H]1CN[C@@H]([C@@H](O)[C@H](Cc2cc(F)cc(F)c2)NC(=O)[C@H](C)N2CC[C@H](CC(C)C)C2=O)C1

- efflux ratio (P-glycoprotein): > 12
- IC50 (Beta-secretase 1 [2]): 2 nM
Structure (SMILES): CCCO[C@H]1CN[C@@H]([C@@H](O)[C@H](Cc2cc(F)cc(F)c2)NC(=O)[C@H](CCc2ccccc2)N2CC[C@@](CC(C)C)(NC(C)=O)C2=O)C1

- IC50 (Beta-secretase 1 [7]): 21 nM
- IC50 (Beta-secretase 1 [2]): 99 nM
Structure (SMILES): CCCO[C@H]1CN[C@@H]([C@@H](O)[C@H](Cc2cc(F)cc(F)c2)NC(=O)[C@H](CCc2ccccc2)N2CC[C@H](C(C)C)C2=O)C1

- IC50 (Beta-secretase 1 [7]): 40 nM
- IC50 (Beta-secretase 1 [2]): 870 nM
Structure (SMILES): CCC[C@@H](O)[C@H]1CCN([C@@H](C)C(=O)N[C@@H](Cc2cc(F)cc(F)c2)[C@H](O)[C@H]2C[C@H](O)CN2)C1=O

- IC50 (Beta-secretase 1 [7]): 87 nM
- efflux ratio (P-glycoprotein): > 17
- IC50 (Beta-secretase 1 [2]): 68 nM
Structure (SMILES): CCCC[C@H]1CCN([C@@H](C)C(=O)N[C@@H](Cc2cc(F)cc(F)c2)[C@H](O)[C@H]2C[C@@H](OCCC)CN2)C1=O
